Assay results as given in ChEMBL document CHEMBL4507276 (2021).

Assays:
[1] = biological target: NT-3 growth factor receptor (Homo sapiens) (UniProt Q16288); settings: Compound concentration 1000.0 nM
[2] = biological target: 5-hydroxytryptamine receptor 1B (Rattus norvegicus) (UniProt P28564); experiment: 5HT1B/R Cerep selectivity data (BI); settings: Compound concentration 20.0 uM
[3] = biological target: Small conductance calcium-activated potassium channel protein 1 (Rattus norvegicus) (UniProt P70606); experiment: K+/CA+/R Cerep selectivity data (BI); settings: Compound concentration 20.0 uM
Chain of Small conductance calcium-activated potassium channel protein 1 (Rattus norvegicus) (P70606 whole entry): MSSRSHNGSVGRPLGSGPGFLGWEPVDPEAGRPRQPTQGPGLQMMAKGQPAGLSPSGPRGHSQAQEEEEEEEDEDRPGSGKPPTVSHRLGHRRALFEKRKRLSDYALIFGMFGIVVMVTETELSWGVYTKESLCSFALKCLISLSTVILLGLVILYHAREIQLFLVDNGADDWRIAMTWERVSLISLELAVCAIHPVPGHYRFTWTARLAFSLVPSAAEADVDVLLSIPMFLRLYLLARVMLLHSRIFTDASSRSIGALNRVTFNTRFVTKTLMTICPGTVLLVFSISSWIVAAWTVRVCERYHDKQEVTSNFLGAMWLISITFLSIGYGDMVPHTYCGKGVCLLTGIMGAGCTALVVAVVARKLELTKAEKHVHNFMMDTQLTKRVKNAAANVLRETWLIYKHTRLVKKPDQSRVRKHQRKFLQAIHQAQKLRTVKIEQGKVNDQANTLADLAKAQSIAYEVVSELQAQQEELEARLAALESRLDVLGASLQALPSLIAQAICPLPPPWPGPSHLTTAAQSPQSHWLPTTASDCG

[4] = biological target: P2Y purinoceptor 1 (Rattus norvegicus) (UniProt P49651); experiment: P2Y/RAT Eurofins-Panlabs selectivity data (BI); settings: Compound concentration 10.0 uM
Chain of P2Y purinoceptor 1 (Rattus norvegicus) (P49651 whole entry): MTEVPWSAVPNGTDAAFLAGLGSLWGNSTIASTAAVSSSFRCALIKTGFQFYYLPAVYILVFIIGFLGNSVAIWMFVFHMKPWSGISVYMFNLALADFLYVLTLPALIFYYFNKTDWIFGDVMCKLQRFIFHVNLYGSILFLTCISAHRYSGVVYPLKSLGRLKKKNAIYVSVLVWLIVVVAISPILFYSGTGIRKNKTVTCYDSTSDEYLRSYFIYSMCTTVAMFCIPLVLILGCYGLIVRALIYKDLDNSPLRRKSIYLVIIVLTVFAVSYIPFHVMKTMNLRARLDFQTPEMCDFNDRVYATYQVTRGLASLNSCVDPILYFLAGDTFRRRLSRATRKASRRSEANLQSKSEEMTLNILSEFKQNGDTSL

[5] = biological target: RAC-alpha serine/threonine-protein kinase (Homo sapiens) (UniProt P31749); experiment: AKT1 Invitrogen selectivity data (BI); settings: Compound concentration 3.0 uM
Chain of RAC-alpha serine/threonine-protein kinase (Homo sapiens) (P31749 whole entry): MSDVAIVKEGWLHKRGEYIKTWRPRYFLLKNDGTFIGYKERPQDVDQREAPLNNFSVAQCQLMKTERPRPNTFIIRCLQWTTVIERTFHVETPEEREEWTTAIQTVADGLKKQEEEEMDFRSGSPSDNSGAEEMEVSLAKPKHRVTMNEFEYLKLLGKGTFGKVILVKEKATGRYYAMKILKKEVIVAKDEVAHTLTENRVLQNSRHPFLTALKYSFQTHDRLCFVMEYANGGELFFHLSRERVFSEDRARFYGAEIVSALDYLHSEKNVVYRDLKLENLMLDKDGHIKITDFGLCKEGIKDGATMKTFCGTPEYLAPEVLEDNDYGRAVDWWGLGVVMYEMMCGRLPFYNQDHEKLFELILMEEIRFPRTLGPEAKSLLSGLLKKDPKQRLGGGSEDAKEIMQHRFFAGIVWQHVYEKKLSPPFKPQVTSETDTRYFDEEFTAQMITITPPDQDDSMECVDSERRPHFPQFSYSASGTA

[6] = biological target: Dual specificity protein kinase CLK4 (Homo sapiens) (UniProt Q9HAZ1); experiment: CLK4 Invitrogen selectivity data (BI); settings: Compound concentration 3.0 uM
Chain of Dual specificity protein kinase CLK4 (Homo sapiens) (Q9HAZ1 whole entry, looked up): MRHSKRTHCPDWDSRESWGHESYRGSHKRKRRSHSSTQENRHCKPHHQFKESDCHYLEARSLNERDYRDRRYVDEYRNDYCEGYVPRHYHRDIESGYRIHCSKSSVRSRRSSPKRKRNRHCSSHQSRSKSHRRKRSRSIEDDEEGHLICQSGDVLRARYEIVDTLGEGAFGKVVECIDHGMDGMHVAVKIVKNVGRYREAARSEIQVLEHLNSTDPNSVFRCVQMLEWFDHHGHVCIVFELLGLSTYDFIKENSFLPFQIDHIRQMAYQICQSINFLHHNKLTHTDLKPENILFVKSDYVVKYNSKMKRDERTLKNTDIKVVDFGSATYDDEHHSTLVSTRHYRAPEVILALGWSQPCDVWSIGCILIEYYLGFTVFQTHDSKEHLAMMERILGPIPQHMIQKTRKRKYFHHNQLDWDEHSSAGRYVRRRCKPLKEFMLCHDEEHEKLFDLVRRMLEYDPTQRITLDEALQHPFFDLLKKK

[7] = biological target: T1, MAP kinase-activated protein kinase 5 (Homo sapiens) (UniProt Q8IW41); experiment: MAPKAPK5 Invitrogen selectivity data (BI); settings: Compound concentration 3.0 uM
T1 sequence (whole entry): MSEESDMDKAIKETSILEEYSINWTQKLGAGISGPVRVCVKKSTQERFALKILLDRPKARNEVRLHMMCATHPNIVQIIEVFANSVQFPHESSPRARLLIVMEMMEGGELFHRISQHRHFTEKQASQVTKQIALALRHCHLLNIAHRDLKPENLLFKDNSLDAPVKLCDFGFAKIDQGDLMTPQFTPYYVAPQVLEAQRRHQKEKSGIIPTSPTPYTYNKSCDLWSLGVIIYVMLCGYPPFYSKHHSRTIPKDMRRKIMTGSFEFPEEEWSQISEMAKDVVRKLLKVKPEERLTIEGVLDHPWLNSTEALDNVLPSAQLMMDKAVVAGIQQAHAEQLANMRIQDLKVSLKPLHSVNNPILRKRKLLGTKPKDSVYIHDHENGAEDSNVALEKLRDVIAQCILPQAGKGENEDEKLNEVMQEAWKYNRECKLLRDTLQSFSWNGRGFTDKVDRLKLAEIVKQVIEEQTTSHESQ

[8] = biological target: T2, Tyrosine-protein kinase Mer (Homo sapiens) (UniProt Q12866); experiment: MERTK Invitrogen selectivity data (BI); settings: Compound concentration 3.0 uM
T2 sequence (whole entry): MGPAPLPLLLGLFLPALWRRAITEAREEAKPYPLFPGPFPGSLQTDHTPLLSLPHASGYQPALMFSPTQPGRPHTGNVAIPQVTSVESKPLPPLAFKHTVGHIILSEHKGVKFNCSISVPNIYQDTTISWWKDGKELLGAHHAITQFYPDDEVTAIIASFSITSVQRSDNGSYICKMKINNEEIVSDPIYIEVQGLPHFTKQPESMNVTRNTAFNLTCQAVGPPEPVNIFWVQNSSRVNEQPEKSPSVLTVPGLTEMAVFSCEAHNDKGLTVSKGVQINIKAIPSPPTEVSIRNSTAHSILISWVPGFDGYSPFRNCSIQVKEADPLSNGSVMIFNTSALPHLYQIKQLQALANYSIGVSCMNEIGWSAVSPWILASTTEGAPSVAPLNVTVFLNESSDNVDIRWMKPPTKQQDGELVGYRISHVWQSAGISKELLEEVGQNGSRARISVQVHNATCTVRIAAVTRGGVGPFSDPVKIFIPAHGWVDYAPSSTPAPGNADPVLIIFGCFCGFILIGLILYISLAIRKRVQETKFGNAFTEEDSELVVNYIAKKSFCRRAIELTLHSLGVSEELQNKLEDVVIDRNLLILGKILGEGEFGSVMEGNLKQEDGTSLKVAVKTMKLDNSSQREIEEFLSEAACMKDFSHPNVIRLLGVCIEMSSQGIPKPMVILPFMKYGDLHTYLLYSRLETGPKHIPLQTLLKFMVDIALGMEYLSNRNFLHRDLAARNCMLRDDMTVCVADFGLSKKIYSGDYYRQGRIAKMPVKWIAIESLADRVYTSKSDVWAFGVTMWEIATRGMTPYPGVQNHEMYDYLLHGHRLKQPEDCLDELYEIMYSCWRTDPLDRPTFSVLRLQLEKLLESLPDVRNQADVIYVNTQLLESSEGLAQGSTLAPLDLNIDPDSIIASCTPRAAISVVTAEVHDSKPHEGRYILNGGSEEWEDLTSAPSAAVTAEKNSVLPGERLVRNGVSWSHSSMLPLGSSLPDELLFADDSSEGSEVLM

[9] = biological target: Serine/threonine-protein kinase Nek4 (Homo sapiens) (UniProt P51957); experiment: NEK4 Invitrogen selectivity data (BI); settings: Compound concentration 3.0 uM
[10] = biological target: Activated CDC42 kinase 1 (Homo sapiens) (UniProt Q07912); experiment: TNK2 Invitrogen selectivity data (BI); settings: Compound concentration 3.0 uM
Chain of Activated CDC42 kinase 1 (Homo sapiens) (Q07912 whole entry, looked up): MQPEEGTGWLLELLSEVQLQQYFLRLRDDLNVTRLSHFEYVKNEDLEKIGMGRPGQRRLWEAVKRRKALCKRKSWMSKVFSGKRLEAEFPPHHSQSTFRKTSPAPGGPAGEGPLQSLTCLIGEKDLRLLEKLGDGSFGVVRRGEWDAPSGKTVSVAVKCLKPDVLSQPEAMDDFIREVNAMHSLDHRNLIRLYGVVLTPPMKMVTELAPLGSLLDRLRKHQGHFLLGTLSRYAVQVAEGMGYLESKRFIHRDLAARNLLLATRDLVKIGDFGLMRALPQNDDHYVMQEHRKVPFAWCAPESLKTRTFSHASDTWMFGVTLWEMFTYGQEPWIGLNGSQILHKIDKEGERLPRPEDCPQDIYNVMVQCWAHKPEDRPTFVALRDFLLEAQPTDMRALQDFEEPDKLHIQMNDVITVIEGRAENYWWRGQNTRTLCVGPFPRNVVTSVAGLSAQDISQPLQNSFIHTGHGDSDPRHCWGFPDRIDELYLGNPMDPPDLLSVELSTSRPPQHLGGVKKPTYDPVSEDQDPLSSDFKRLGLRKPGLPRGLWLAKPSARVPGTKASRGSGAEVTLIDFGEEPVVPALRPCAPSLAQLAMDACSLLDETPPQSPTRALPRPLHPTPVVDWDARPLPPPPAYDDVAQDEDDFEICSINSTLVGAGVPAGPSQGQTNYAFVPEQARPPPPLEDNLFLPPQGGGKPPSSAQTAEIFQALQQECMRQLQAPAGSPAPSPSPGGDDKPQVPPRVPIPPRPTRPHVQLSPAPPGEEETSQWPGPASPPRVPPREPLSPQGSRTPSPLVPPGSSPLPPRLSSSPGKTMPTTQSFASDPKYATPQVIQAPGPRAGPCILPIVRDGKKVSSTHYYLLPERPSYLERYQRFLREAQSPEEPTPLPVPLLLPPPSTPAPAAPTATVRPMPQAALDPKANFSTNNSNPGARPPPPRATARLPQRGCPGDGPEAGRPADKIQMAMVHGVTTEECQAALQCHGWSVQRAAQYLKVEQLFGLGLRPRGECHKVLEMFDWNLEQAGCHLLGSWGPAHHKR

[11] = biological target: T3, Dual specificity protein kinase TTK (Homo sapiens) (UniProt P33981); experiment: TTK Invitrogen selectivity data (BI); settings: Compound concentration 3.0 uM
T3 sequence (whole entry): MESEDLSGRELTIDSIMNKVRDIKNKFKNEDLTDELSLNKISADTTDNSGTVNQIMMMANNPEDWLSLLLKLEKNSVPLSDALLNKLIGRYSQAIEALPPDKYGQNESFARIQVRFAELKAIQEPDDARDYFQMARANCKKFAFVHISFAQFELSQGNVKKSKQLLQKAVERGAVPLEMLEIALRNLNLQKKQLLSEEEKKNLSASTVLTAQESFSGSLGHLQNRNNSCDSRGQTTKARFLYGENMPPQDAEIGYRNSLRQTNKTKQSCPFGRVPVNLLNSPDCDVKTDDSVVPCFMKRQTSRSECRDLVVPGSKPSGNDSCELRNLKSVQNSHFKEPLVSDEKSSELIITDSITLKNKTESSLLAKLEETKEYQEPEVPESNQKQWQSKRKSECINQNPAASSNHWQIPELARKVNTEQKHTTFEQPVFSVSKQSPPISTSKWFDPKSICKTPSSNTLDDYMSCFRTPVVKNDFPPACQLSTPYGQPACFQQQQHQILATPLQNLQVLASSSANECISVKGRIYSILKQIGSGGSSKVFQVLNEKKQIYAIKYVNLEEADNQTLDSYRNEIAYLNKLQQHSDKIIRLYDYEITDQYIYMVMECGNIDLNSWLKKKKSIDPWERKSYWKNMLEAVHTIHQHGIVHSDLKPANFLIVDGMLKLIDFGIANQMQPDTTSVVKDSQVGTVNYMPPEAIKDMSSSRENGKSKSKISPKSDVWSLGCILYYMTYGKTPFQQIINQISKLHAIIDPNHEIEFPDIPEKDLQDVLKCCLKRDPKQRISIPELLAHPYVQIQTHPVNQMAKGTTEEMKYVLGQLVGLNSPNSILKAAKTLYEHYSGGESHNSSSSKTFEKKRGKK

[12] = biological target: Muscarinic acetylcholine receptor M3 (Homo sapiens) (UniProt P20309); settings: Compound concentration 10.0 uM
Chain of Muscarinic acetylcholine receptor M3 (Homo sapiens) (P20309 whole entry, looked up): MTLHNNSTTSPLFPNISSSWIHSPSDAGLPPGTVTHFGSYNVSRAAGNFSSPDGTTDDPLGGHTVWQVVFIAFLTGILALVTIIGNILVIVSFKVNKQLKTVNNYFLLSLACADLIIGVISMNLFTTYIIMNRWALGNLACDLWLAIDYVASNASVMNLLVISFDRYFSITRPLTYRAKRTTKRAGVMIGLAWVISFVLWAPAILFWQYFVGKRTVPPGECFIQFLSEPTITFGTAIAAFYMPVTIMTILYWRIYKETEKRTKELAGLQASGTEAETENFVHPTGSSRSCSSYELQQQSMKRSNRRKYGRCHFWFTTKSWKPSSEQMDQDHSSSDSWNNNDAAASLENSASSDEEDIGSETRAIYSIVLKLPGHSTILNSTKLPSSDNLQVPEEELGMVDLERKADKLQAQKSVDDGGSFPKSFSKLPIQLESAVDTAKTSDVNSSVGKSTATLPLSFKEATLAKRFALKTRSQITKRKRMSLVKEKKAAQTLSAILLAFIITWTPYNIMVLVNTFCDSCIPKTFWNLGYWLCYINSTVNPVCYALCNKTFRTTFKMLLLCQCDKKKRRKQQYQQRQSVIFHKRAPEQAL

Chain of NT-3 growth factor receptor (Homo sapiens) (Q16288 32-839 limits assumed): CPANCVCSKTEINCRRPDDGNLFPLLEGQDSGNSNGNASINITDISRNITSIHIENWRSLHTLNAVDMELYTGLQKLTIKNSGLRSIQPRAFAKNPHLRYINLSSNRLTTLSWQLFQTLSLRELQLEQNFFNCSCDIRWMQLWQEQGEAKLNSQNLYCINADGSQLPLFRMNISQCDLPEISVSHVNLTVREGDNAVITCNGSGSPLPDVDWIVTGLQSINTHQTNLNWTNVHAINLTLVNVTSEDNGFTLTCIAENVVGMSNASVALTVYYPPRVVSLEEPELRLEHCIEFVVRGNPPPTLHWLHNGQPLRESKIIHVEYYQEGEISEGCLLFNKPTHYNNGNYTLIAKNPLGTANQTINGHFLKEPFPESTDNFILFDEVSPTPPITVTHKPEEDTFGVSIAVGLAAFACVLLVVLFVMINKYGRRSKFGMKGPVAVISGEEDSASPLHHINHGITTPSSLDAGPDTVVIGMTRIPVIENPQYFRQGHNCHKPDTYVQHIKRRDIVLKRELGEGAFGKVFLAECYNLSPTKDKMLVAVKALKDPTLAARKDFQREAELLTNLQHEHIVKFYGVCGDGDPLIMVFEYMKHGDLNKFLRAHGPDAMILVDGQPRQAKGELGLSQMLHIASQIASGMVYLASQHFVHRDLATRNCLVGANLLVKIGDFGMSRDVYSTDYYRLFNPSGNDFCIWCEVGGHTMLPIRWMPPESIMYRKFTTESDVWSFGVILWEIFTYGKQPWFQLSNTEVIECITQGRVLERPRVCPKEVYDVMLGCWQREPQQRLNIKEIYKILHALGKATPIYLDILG
Chain of 5-hydroxytryptamine receptor 1B (Rattus norvegicus) (P28564 whole entry): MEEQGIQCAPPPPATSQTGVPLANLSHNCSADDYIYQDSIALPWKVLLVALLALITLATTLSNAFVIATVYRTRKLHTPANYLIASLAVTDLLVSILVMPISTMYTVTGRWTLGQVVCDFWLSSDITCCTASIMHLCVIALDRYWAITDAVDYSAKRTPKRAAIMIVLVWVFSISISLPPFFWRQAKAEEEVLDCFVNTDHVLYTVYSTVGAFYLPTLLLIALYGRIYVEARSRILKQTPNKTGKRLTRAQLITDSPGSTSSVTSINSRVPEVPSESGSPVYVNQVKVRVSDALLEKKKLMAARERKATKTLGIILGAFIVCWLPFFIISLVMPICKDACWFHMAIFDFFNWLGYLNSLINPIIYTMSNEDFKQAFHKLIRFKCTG

CN(C)C(=O)Cn1cc(-c2nc(C3(c4ccc(-c5cnc(N)nc5)cc4)CC3)no2)cn1 [BI 0153]
inactive: residual activity [1] 97%

CN(C)C(=O)Cn1cc(-c2nc([C@@](C)(c3ccc(-c4cnc(N)nc4)cc3)C3CC3)no2)cn1 [BI 665915]
inactive: residual activity [2] 141% | residual activity [3] 88% | residual activity [4] 95% | residual activity [5] 99% | residual activity [6] 95% | residual activity [7] 98.5% | residual activity [8] 94% | residual activity [9] 97% | residual activity [10] 99% | residual activity [11] 98% | inhibition [12] 7.43%
